Each structure is given as a SMILES string. Calls of active or inactive are those of the source.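 How the source made its calls: active means a tumor-causing dose value with its tumor site reported for any sex and species group of a rodent or other animal cancer study; inconclusive means only studies judged inadequate by the national testing program; inactive means tested in at least one study, none positive.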 Numbered stars: 1 amine (or outer) side, 2 acyl side, 3 side chain; on linkers, the order of the positions; unused ones are H or OH. Bridge positions count the residues as written; N and C are the ends. Square brackets hold non-standard residues; d marks the D form. Peptide text beside a SMILES is read from it. I, II: the chains in the order shown. Actinocin(9to1) = Cc1c2oc3c(C)ccc(C(=O)[*:1])c3nc-2c(C(=O)[*:2])c(N)c1=O; NMeV = CN[C@H](C(=O)O)C(C)C; Sar = CNCC(=O)O

This series in a line: DSSTox (CPDBAS) Carcinogenic Potency Database Summary SingleCellCall Results. Particulars: animal chronic carcinogenicity bioassays, CPDB summary call. The method, boiled down:
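Literature-derived summary: each substance receives an overall carcinogenic/non-carcinogenic category drawn from long-term bioassays in rats, mice, hamsters, dogs or primates, using the most positive sex-species experiment and minimal evidence criteria.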
In the case of `CCN(CC)C(=S)S[Te](SC(=S)N(CC)CC)(SC(=S)N(CC)CC)SC(=S)N(CC)CC`, the result was inactive.

In the case of `CCCCC(C)(O)C/C=C/[C@H]1[C@H](O)CC(=O)[C@@H]1CCCCCCC(=O)OC` (stereo not given in full), the outcome was “inactive; active”.

`Cc1cccc2cccnc12`: the result was inactive.

In the case of `COC(=O)C1=CCCN(C)C1`, the outcome was active.

Turning to `BrC(Br)Br`, the outcome was “active; inactive”.

Regarding `Clc1nc(Cl)nc(Nc2ccccc2Cl)n1`, the result was inactive.

Take `CCCNC(=O)NS(=O)(=O)c1ccc(Cl)cc1`: the outcome was inactive.

Regarding `Cc1ccc([N+](=O)[O-])cc1`, the result was active.

Regarding `CCC1(c2ccccc2)C(=O)NC(=O)NC1=O`, the result was active.

Regarding `Cc1csc(NNC=O)n1`, the result was active.

For the compound `Cc1ccc(-c2cc(C(F)(F)F)nn2-c2ccc(S(N)(=O)=O)cc2)cc1`, the result was inactive.

On to `S=C(NC1CCCCC1)NC1CCCCC1`, for which the outcome is “inactive; active”.

In the case of `FC(Cl)(Cl)Cl`, the outcome is “inactive; active”.

For `O=C(Nc1ccc2c(c1)Cc1ccccc1-2)C(F)(F)F`, the result was active.

Take `Nc1cc(Cl)cc(C(=O)O)c1Cl`: the outcome is “active; inactive”.

Regarding `O=[As](O)(O)O`, the outcome was inactive.

With `NC(=O)CCCCC(N)=O`, the outcome is “inactive; active”.

`NC(=S)Nc1cccc2ccccc12`: the result was inactive.

`COC(=O)[C@H]1[C@H]2C[C@@H]3c4[nH]c5ccccc5c4CCN3C[C@H]2C[C@@H](OC(=O)c2cc(OC)c(OC)c(OC)c2)[C@@H]1OC`: the result was inactive.

Take `O=C1CCN([C@@H]2O[C@H](CO)[C@@H](O)[C@H]2O)C(=O)N1`: the outcome was inactive.

Turning to `NC(=O)N(CCCO)N=O`, the outcome was “active; inactive”.

Turning to `Cc1cc2ncccc2c2nc(N)n(C)c12`, the result was active.

On to `Clc1cccc(-c2cc(Cl)cc(Cl)c2)c1`, for which the outcome was active.

Consider `Cc1ccc(S(=O)(=O)OCCN(C)N=O)cc1`, for which the outcome was active.

With `CC(C)CCC[C@@H](C)[C@H]1CC[C@H]2[C@@H]3CC=C4C[C@@H](OC(=O)Cc5ccc(N(CCCl)CCCl)cc5)CC[C@]4(C)[C@H]3CC[C@]12C`, the outcome was active.

With `O=[N+]([O-])c1cccc2ccccc12`, the outcome was inactive.

Take `Cc1ccccc1[N+](=O)[O-]`: the result was active.

For the compound `Nc1nc(N)nc(-c2ccccc2)n1`, the outcome was “inactive; active”.

Consider `OC[C@@H](O)[C@@H](O)[C@H](O)[C@H](O)CO[C@H]1O[C@H](CO)[C@@H](O)[C@H](O)[C@H]1O`, for which the result was inactive.

As for `CNC(=O)Oc1cccc2ccccc12`, the outcome was active.

As for `CC(O)CN(C)c1ccc(NN)nn1` (stereo not given), the outcome was inactive.

Consider `O=C(O)CCC(=O)O`, for which the outcome is “inactive; active”.

Turning to `COc1cccc(O)c1O`, the result was active.

Consider `CC(C)Nc1nc(Cl)nc(NC(C)C)n1`, for which the result was inactive.

With `O=NN(CC(F)(F)F)CC(F)(F)F`, the outcome was inactive.

With `CC(=O)Nc1ccc(C(=O)CCl)cc1`, the result was inactive.

`ClC(Cl)=C(Cl)C(Cl)=C(Cl)Cl`: the outcome was active.

`NC1=NCN([C@@H]2O[C@H](CO)[C@@H](O)[C@H]2O)C(=O)N1`: the outcome is “inactive; active”.

In the case of `OC[C@H]1O[C@@H]2O[C@H]3[C@H](O)[C@@H](O)[C@@H](O[C@H]4[C@H](O)[C@@H](O)[C@@H](O[C@H]5[C@H](O)[C@@H](O)[C@@H](O[C@H]6[C@H](O)[C@@H](O)[C@@H](O[C@H]7[C@H](O)[C@@H](O)[C@@H](O[C@H]8[C@H](O)[C@@H](O)[C@@H](O[C@H]1[C@H](O)[C@H]2O)O[C@@H]8CO)O[C@@H]7CO)O[C@@H]6CO)O[C@@H]5CO)O[C@@H]4CO)O[C@@H]3CO`, the result was inactive.

As to `CN1C(C(=O)Nc2ccccn2)=C(O)c2sc(Cl)cc2S1(=O)=O`, the result was inactive.

With `CN(C)CCC(c1ccc(Cl)cc1)c1ccccn1` (stereo not given), the outcome was inactive.

Take `Clc1ccccc1Cl`: the result was inactive.

For the compound `Nc1cc(S(=O)(=O)[O-])cc2cc(S(=O)(=O)[O-])c(N=Nc3ccc(-c4ccc(N=Nc5c(S(=O)(=O)[O-])cc6cc(S(=O)(=O)[O-])cc(N)c6c5O)c(O)c4)cc3O)c(O)c12.[Cu].[Cu].[Na+].[Na+].[Na+].[Na+]`, the outcome is “active; inactive”.

For the compound `NC(=O)N/N=C/c1ccc([N+](=O)[O-])o1`, the outcome was active.

In the case of `CN(N)C=O`, the result was active.

Take `CCCCCCN(N=O)C(N)=O`: the outcome was “active; inactive”.

With `COc1ccc(N)cc1N`, the result was active.

As for `Cc1cccc(Nc2cc(Cl)nc(SCC(=O)NCCO)n2)c1C`, the outcome was “active; inactive”.

With `CCCC/C=N/N(C)C=O`, the result was active.

Regarding `Oc1cc2c(cc1O)[C@H]1c3ccc(O)c(O)c3OC[C@@]1(O)C2`, the outcome was active.

As for `O1[As]2O[As]3O[As]1O[As](O2)O3`, the outcome was inactive.

As for `CCN(CC)CCCNC(=O)Cn1ncc(-c2ccccc2)c1-c1ccccc1`, the outcome was inactive.

Consider `COc1cc(OC)c2c3c(c(=O)oc2c1)C(=O)CC3`, for which the outcome is “inactive; active”.

Consider `CCOC(=O)[C@]1(c2ccccc2)CCC=C[C@H]1N(C)C`, for which the result was inactive.

With `CC(=O)Oc1c(C)c(C)c2c(c1C)CCC(C)(CCCC(C)CCCC(C)CCCC(C)C)O2` (stereo not given), the outcome was inactive.

On to `O=NN1CCC(O)C1` (stereo not given), for which the outcome was active.

As for `CCN(CC)C(=O)/C(Cl)=C(\C)OP(=O)(OC)OC`, the result was inactive.

Regarding `O=C1CCO1`, the outcome was “active; inactive”.

With `Cc1ccc(S(=O)(=O)Oc2ccc(N=Nc3ccc(-c4ccc(N=Nc5c(O)ccc6cc(S(=O)(=O)O)cc(S(=O)(=O)O)c56)c(C)c4)cc3C)cc2)cc1`, the result was active.

For the compound `CC(C)OC(=O)Nc1cccc(Cl)c1`, the outcome is “inactive; active”.

Consider `CC(=O)N[C@@H](CC(C)C)C(=O)N[C@@H](CC(C)C)C(=O)N[C@H](C=O)CCCN=C(N)N`, for which the outcome is “active; inactive”.

Consider `O=NN1CCCCO1`, for which the result was active.

Consider `C=C(C)C`, for which the result was active.

Take `ON=C1CCCC1`: the outcome is “active; inactive”.

On to `Nc1ccc(-c2ccc(N)c(Cl)c2)cc1Cl`, for which the outcome was active.

Take `Nc1ccc(O)c(N)c1`: the result was active.

`CCNC(=O)Nc1ncc([N+](=O)[O-])s1`: the outcome was active.

On to `O=C1C=C(N2CC2)C(=O)C(N2CC2)=C1N1CC1`, for which the result was active.

As for `[Cl-].[Hg+]`, the outcome was “inactive; active”.

Consider `NC(=O)c1ccncc1`, for which the result was inactive.

Turning to `Cc1cc(OC(=O)N(C)C)n(C(C)C)n1`, the outcome is “inactive; active”.

Turning to `C=C(C)C(=O)OC`, the outcome is “inactive; active”.

Turning to `NC(=O)N(CC(=O)O)N=O`, the outcome was “active; inactive”.

In the case of `CC1=C(C(=O)OC(C)C)C(c2cccc([N+](=O)[O-])c2)C(C(=O)OC2CN(C(c3ccccc3)c3ccccc3)C2)=C(N)N1` (stereo not given), the outcome was “inactive; active”.

Regarding `CCOC(=O)CC(SP(=O)(OC)OC)C(=O)OCC` (stereo not given), the result was inactive.

Regarding `[O]=[Mo](=[O])=[O]`, the result was active.

Regarding `O=[N+]([O-])/C=C/c1ccccc1`, the result was inactive.

In the case of `CCNC(=S)NCC`, the outcome was active.

For the compound `NC(Cc1c[nH]c2ccccc12)C(=O)O` (stereo not given), the outcome was inactive.

As for `CS(=O)(=O)OCCCNCCCOS(C)(=O)=O`, the outcome is “inactive; active”.

With `CN(C)P(=O)(N(C)C)N(C)C`, the result was active.

Consider `CN(N=O)C(=O)c1c(N(C)N=O)ncn1C`, for which the result was active.

As for `Nc1ccc(Oc2ccc(Cl)cc2)cc1`, the result was active.

On to `CCC1NC(=O)C2C(Cl)C(Cl)CN2C(=O)C(CO)NC(=O)CC(c2ccccc2)NC(=O)C(CO)NC1=O` (stereo not given), for which the outcome is “active; inactive”.

In the case of `CC1=C(/C=C/C(C)=C/C=C/C(C)=C/C=C/C=C(C)/C=C/C=C(C)/C=C/C2=C(C)CCCC2(C)C)C(C)(C)CCC1`, the result was inactive.

On to `CCCCCl`, for which the result was inactive.

In the case of `CC(C)Cc1ccc(C(C)C(=O)O)cc1` (stereo not given), the result was inactive.

In the case of `FC(Cl)C(F)(F)F` (stereo not given), the result was inactive.

Regarding `C=CCN(N=O)C(N)=O`, the outcome was active.

For `C=CC(OCC)OCC`, the result was inactive.

Consider `NC(=O)c1ccccc1C(N)=O`, for which the result was inactive.

On to `Cc1cccc(OCC(O)CNC(C)(C)C)c1C` (stereo not given), for which the result was inactive.

Regarding `Cc1c2oc3c(C)ccc(C(=O)N[C@@H]4C(=O)N[C@H](C(C)C)C(=O)N5CCC[C@H]5C(=O)N(C)CC(=O)N(C)[C@@H](C(C)C)C(=O)O[C@@H]4C)c3nc-2c(C(=O)N[C@@H]2C(=O)N[C@H](C(C)C)C(=O)N3CCC[C@H]3C(=O)N(C)CC(=O)N(C)[C@@H](C(C)C)C(=O)O[C@@H]2C)c(N)c1=O` (I: T[dV]P[Sar][NMeV] / II: T[dV]P[Sar][NMeV]; ester I:1-I:C, II:1-II:C; linker I:N-II:N via Actinocin(9to1)), the outcome was “active; inactive”.

On to `N=C1C=CC(=C(c2ccc(N)cc2)c2ccc(N)cc2)C=C1`, for which the result was active.

Take `O=NN1CC=CCO1`: the result was active.

`CNNCc1ccc(C(=O)NC(C)C)cc1`: the outcome was active.

For the compound `COc1ccc(C(c2ccc(OC)cc2)C(Cl)(Cl)Cl)cc1`, the outcome was “inactive; active”.

For `CCCN(N=O)C(=N)N[N+](=O)[O-]`, the outcome was active.

Turning to `CC(C)(Oc1ccc(C2CCCc3ccccc32)cc1)C(=O)O` (stereo not given), the outcome is “active; inactive”.

In the case of `S=[Se]`, the outcome was active.

Values taken from PubChem BioAssay AID1189 (EPA DSSTox, 2008).
